{"source": "patent US6881749B2", "about": "“Pyranoindazoles and their use for the treatment of glaucoma” (Alcon, Inc., priority 2001, dated 2005)", "key": {"monkey": {"system": "monkey", "settings": "due to its α1A receptor activity; cited from earlier work"}, "[1]": {"system": "Conscious Cynomolgus Monkeys", "assay": "IOP response in conscious cynomolgus monkeys", "assay_type": "in vivo, cynomolgus monkey", "settings": "dose 100 μg, 6 hours after dose"}, "rabbits": {"system": "rabbits", "settings": "cited from earlier work"}}}
{"smiles": "COc1ccccc1N1CCN(CCCNc2c(C)c(=O)n(C)c(=O)n2C)CC1", "note": "[5-methylurapidil]", "values": [{"measurement": "effect on IOP", "setting": "monkey", "result": "lowers IOP"}]}
{"smiles": "COc1cc(C[C@@H](C)N)c(OC)cc1I", "note": "[(R)-DOI]", "values": [{"measurement": "Percent IOP Reduction ± SEM", "setting": "[1]", "result": "34.4 ± 4.98", "unit": "%"}]}
{"smiles": "CCCN(CCC)C1CCc2cccc(O)c2C1", "note": "(stereo not drawn) [Example 8-OH-DPAT, 8-hydroxydipropylaminotetralin]", "values": [{"measurement": "effect on IOP", "setting": "rabbits", "result": "reduces IOP"}]}
